Article PMC5847526, “Inhibition of neuronal FLT3 receptor tyrosine kinase alleviates peripheral neuropathic pain in mice” (Nature Communications, 2018)

Tests used:
EphA5 = EphA5 (Homo sapiens, UniProt P54756); assay: cell-based; set-up: PathHunter eXpress functional assay (DiscoverX tkMAX), inhibition of reference ligand response; conditions: read-out: % Inhibition of reference binding (Table 3)
DDR1 = DDR1 (Homo sapiens, UniProt Q08345); assay: cell-based; set-up: PathHunter eXpress functional assay (DiscoverX tkMAX), inhibition of reference ligand response; conditions: read-out: % Inhibition of reference binding (Table 3)
EphA7 = EphA7 (Homo sapiens, UniProt Q15375); assay: cell-based; set-up: PathHunter eXpress functional assay (DiscoverX tkMAX), inhibition of reference ligand response; conditions: read-out: % Inhibition of reference binding (Table 3)
INSRb = target: T1, INSRb (Homo sapiens, UniProt P06213); assay: cell-based; set-up: PathHunter eXpress functional assay (DiscoverX tkMAX), inhibition of reference ligand response; conditions: read-out: % Inhibition of reference binding (Table 3)
T1 construct: gene INSR; isoform b
T1 sequence (P06213 whole entry, canonical isoform): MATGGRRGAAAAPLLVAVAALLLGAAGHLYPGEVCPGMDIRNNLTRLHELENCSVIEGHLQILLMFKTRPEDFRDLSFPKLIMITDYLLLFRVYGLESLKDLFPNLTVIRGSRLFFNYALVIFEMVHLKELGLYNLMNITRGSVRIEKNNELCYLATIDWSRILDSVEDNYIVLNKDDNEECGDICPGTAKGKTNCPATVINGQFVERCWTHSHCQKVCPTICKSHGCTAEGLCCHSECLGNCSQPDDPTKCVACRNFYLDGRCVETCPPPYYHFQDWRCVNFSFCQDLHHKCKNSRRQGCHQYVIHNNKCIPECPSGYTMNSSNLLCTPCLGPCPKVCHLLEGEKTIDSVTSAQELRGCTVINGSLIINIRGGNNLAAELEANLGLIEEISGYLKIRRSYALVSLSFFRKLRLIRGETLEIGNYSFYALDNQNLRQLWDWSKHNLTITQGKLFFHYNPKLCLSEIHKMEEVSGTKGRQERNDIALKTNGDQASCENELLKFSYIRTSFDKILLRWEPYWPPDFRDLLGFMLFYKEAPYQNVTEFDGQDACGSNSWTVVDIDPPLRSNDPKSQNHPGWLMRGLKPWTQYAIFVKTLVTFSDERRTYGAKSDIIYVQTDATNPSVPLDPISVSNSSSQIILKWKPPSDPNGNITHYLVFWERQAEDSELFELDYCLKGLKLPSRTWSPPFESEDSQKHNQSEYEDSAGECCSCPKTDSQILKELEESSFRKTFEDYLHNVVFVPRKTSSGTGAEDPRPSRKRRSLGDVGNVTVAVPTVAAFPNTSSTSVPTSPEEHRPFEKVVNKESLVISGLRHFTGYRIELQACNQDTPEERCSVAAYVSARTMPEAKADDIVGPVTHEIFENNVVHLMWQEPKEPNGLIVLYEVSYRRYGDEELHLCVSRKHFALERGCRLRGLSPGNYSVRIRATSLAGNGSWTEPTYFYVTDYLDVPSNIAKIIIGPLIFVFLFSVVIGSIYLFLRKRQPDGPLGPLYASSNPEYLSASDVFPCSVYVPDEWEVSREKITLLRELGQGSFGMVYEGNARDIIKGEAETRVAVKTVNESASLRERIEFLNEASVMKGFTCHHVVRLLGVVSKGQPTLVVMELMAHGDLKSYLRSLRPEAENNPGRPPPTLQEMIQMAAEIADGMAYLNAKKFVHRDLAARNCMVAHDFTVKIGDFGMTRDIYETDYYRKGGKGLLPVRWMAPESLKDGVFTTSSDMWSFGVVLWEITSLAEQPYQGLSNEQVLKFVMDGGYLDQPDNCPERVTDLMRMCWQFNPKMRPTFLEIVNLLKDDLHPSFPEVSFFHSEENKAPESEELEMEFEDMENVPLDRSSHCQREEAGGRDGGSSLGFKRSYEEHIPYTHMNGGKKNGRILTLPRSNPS

TrkA-P75 = target: T2, TrkA-P75 (Homo sapiens, UniProt P04629); assay: cell-based; set-up: PathHunter eXpress functional assay (DiscoverX tkMAX), inhibition of reference ligand response; conditions: read-out: % Inhibition of reference binding (Table 3)
T2 construct: gene NTRK1
T2 sequence (P04629 whole entry): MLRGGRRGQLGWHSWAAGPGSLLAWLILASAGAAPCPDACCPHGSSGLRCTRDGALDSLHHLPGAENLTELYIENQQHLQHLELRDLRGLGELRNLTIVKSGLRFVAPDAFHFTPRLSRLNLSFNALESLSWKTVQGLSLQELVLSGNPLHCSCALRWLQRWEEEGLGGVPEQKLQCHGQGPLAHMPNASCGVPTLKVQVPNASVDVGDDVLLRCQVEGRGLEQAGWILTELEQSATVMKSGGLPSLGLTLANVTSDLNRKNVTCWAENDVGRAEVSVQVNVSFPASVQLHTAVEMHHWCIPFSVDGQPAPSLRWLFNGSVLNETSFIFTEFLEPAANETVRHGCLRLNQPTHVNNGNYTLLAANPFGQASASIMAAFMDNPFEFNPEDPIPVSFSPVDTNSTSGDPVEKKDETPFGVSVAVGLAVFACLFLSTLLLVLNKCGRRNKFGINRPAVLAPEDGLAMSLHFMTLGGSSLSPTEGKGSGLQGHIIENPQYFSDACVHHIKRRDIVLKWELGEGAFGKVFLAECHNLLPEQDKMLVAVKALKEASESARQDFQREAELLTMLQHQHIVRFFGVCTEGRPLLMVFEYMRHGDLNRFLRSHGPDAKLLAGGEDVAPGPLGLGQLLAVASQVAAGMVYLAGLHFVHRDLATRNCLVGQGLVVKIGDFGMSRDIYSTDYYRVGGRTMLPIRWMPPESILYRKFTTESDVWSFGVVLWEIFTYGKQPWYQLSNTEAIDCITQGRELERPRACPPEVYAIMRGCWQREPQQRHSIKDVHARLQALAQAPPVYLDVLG
T2 sequence (P08138 whole entry partner): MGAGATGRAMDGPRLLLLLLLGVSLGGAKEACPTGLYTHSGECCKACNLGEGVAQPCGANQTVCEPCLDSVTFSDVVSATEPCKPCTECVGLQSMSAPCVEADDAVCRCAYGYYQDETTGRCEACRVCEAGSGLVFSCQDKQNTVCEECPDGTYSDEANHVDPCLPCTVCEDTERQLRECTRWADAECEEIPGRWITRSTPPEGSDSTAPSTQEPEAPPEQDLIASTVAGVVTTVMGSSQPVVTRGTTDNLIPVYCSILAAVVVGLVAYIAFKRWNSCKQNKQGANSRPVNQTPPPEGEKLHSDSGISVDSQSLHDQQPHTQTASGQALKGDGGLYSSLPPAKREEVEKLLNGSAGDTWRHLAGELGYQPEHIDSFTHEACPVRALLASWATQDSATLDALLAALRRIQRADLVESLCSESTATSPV

PDGFRβ = target: T3, PDGFRβ (Homo sapiens, UniProt P09619); assay: biochemical; set-up: ExpresS Diversity kinase profile (Eurofins Cerep P10), per cent inhibition; conditions: read-out: Inhibition of reference binding (Table 4)
T3 construct: gene PDGFRB

PDK1 = target: T4, PDK1 (Homo sapiens, UniProt O15530); assay: biochemical; set-up: ExpresS Diversity kinase profile (Eurofins Cerep P10), per cent inhibition; conditions: read-out: Inhibition of reference binding (Table 4)
T4 construct: gene PDPK1

MARK1 = MARK1 (Homo sapiens, UniProt Q9P0L2); assay: biochemical; set-up: ExpresS Diversity kinase profile (Eurofins Cerep P10), per cent inhibition; conditions: read-out: Inhibition of reference binding (Table 4)
AurA/Aur2 kinase = target: T5, AurA/Aur2 kinase (Homo sapiens, UniProt O14965); assay: biochemical; set-up: ExpresS Diversity kinase profile (Eurofins Cerep P10), per cent inhibition; conditions: read-out: Inhibition of reference binding (Table 4)
T5 construct: gene AURKA

PAK2 = PAK2 (Homo sapiens, UniProt Q13177); assay: biochemical; set-up: ExpresS Diversity kinase profile (Eurofins Cerep P10), per cent inhibition; conditions: read-out: Inhibition of reference binding (Table 4)
SIK = target: T6, SIK (Homo sapiens, UniProt P57059); assay: biochemical; set-up: ExpresS Diversity kinase profile (Eurofins Cerep P10), per cent inhibition; conditions: read-out: Inhibition of reference binding (Table 4)
T6 construct: gene SIK1

IRK = target: T7, IRK (Homo sapiens, UniProt P06213); assay: biochemical; set-up: ExpresS Diversity kinase profile (Eurofins Cerep P10), per cent inhibition; conditions: read-out: Inhibition of reference binding (Table 4)
T7 construct: gene INSR; insulin receptor kinase
T7 sequence (P06213 whole entry): as the sequence (P06213 whole entry, canonical isoform) above

MAPKAPK2 = MAPKAPK2 (Homo sapiens, UniProt P49137); assay: biochemical; set-up: ExpresS Diversity kinase profile (Eurofins Cerep P10), per cent inhibition; conditions: read-out: Inhibition of reference binding (Table 4)
IKKα = target: T8, IKKα (Homo sapiens, UniProt O15111); assay: biochemical; set-up: ExpresS Diversity kinase profile (Eurofins Cerep P10), per cent inhibition; conditions: read-out: Inhibition of reference binding (Table 4)
T8 construct: gene CHUK
T8 sequence (O15111 whole entry): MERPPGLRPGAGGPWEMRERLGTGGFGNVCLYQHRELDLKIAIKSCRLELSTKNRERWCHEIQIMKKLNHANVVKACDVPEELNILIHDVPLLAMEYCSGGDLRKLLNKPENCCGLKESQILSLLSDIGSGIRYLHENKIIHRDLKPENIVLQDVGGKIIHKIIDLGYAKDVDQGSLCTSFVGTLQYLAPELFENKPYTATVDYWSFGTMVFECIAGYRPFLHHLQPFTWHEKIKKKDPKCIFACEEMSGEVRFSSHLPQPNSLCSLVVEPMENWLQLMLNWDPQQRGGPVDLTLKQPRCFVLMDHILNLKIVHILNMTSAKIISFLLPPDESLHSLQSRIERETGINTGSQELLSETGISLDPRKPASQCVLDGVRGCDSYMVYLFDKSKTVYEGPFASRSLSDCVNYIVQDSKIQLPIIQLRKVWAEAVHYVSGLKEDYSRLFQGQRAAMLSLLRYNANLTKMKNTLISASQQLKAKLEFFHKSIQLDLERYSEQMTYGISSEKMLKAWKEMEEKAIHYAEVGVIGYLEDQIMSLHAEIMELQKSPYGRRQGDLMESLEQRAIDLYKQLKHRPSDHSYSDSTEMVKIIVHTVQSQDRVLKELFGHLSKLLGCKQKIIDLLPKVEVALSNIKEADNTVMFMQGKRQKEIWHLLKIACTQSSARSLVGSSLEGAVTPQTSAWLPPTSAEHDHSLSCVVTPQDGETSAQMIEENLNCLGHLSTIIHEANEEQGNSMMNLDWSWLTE

NEK2 = NEK2 (Homo sapiens, UniProt P51955); assay: biochemical; set-up: ExpresS Diversity kinase profile (Eurofins Cerep P10), per cent inhibition; conditions: read-out: Inhibition of reference binding (Table 4)
CaMK2α = target: T9, CaMK2α (Homo sapiens, UniProt Q9UQM7); assay: biochemical; set-up: ExpresS Diversity kinase profile (Eurofins Cerep P10), per cent inhibition; conditions: read-out: Inhibition of reference binding (Table 4)
T9 construct: gene CAMK2A

TRKA = target: T10, TRKA (Homo sapiens, UniProt P04629); assay: biochemical; set-up: ExpresS Diversity kinase profile (Eurofins Cerep P10), per cent inhibition; conditions: read-out: Inhibition of reference binding (Table 4)
T10 construct: gene NTRK1
T10 sequence (P04629 whole entry): as the sequence (P04629 whole entry) above

FGFR1 kinase = FGFR1 kinase (Homo sapiens, UniProt P11362); assay: biochemical; set-up: ExpresS Diversity kinase profile (Eurofins Cerep P10), per cent inhibition; conditions: read-out: Inhibition of reference binding (Table 4)
Chain of FGFR1 kinase (P11362 whole entry): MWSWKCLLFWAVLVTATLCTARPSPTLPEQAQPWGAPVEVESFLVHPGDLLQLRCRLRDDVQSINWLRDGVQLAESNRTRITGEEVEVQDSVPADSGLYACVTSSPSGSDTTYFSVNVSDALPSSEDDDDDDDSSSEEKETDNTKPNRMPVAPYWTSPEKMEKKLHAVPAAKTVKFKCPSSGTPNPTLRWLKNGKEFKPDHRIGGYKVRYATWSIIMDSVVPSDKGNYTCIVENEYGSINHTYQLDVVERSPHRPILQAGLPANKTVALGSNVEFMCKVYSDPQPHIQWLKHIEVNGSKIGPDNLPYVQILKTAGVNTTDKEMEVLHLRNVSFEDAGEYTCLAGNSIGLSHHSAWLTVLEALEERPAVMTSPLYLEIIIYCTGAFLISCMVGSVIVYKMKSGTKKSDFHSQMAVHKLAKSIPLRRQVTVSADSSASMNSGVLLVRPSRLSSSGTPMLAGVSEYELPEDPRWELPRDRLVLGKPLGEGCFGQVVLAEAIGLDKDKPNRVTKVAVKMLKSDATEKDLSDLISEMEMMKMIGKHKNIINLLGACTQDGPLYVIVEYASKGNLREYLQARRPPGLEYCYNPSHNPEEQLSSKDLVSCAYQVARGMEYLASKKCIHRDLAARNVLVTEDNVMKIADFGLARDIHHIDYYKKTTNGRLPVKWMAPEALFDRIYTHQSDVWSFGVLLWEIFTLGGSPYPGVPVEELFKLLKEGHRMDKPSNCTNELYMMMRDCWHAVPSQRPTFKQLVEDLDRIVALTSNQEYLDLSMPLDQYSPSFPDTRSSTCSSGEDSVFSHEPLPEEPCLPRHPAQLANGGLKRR

Akt1/PKBα = Akt1/PKBα (Homo sapiens, UniProt P31749); assay: biochemical; set-up: ExpresS Diversity kinase profile (Eurofins Cerep P10), per cent inhibition; conditions: read-out: Inhibition of reference binding (Table 4)
FGFR3 kinase = FGFR3 kinase (Homo sapiens, UniProt P22607); assay: biochemical; set-up: ExpresS Diversity kinase profile (Eurofins Cerep P10), per cent inhibition; conditions: read-out: Inhibition of reference binding (Table 4)
Chain of FGFR3 kinase (P22607 whole entry): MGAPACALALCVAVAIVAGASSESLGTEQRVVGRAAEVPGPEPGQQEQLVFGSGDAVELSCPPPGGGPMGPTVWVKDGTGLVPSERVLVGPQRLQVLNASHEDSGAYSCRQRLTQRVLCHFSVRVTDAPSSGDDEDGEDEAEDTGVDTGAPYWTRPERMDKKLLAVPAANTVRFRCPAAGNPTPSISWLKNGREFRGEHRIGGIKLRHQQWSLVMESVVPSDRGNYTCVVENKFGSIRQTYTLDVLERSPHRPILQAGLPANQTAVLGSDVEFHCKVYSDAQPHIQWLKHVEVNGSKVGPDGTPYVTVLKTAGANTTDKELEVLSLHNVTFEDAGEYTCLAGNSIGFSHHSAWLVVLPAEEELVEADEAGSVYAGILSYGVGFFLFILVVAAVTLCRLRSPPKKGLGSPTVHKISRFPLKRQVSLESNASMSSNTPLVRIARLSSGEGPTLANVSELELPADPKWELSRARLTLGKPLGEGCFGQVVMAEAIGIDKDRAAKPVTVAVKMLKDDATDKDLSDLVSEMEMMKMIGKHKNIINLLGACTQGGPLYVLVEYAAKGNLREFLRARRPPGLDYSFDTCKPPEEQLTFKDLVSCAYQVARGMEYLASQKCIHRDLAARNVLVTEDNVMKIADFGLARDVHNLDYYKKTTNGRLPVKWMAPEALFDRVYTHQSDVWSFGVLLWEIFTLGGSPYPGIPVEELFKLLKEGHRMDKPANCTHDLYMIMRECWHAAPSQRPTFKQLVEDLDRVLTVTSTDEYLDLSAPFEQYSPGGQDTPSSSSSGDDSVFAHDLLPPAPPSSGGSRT

CDC2/CDK1 = CDC2/CDK1 (Homo sapiens, UniProt P06493); assay: biochemical; set-up: ExpresS Diversity kinase profile (Eurofins Cerep P10), per cent inhibition; conditions: read-out: Inhibition of reference binding (Table 4)
EGFR kinase = EGFR kinase (Homo sapiens, UniProt P00533); assay: biochemical; set-up: ExpresS Diversity kinase profile (Eurofins Cerep P10), per cent inhibition; conditions: read-out: Inhibition of reference binding (Table 4)
Src kinase = Src kinase (Homo sapiens, UniProt P12931); assay: biochemical; set-up: ExpresS Diversity kinase profile (Eurofins Cerep P10), per cent inhibition; conditions: read-out: Inhibition of reference binding (Table 4)
PDGFRα = target: T11, PDGFRα (Homo sapiens, UniProt P16234); assay: biochemical; set-up: ExpresS Diversity kinase profile (Eurofins Cerep P10), per cent inhibition; conditions: read-out: Inhibition of reference binding (Table 4)
T11 construct: gene PDGFRA

PKA = target: T12, PKA (Homo sapiens, UniProt P17612); assay: biochemical; set-up: ExpresS Diversity kinase profile (Eurofins Cerep P10), per cent inhibition; conditions: read-out: Inhibition of reference binding (Table 4)
T12 construct: gene PRKACA

TAOK2 = TAOK2 (Homo sapiens, UniProt Q9UL54); assay: biochemical; set-up: ExpresS Diversity kinase profile (Eurofins Cerep P10), per cent inhibition; conditions: read-out: Inhibition of reference binding (Table 4)
FGFR2 kinase = FGFR2 kinase (Homo sapiens, UniProt P21802); assay: biochemical; set-up: ExpresS Diversity kinase profile (Eurofins Cerep P10), per cent inhibition; conditions: read-out: Inhibition of reference binding (Table 4)

Structure (SMILES): O=C(Nc1cc(Cl)ccc1O)c1cccc(S(=O)(=O)N2CCCCC2)c1 [compound 66, BDT001]
- inhibition at 10 µM (EphA5): 5%
- inhibition at 10 µM (DDR1): -0.7%
- inhibition at 10 µM (EphA7): 4.3%
- inhibition at 10 µM (INSRb): 10%
- inhibition at 10 µM (TrkA-P75): 13.7%
- inhibition at 10 µM (PDGFRβ): -2%
- inhibition at 10 µM (PDK1): 3%
- inhibition at 10 µM (MARK1): 13%
- inhibition at 10 µM (AurA/Aur2 kinase): -5%
- inhibition at 10 µM (PAK2): -8%
- inhibition at 10 µM (SIK): -6%
- inhibition at 10 µM (IRK): -4%
- inhibition at 10 µM (MAPKAPK2): 6%
- inhibition at 10 µM (IKKα): 20%
- inhibition at 10 µM (NEK2): -23%
- inhibition at 10 µM (CaMK2α): 6%
- inhibition at 10 µM (TRKA): 0%
- inhibition at 10 µM (FGFR1 kinase): -7%
- inhibition at 10 µM (Akt1/PKBα): -13%
- inhibition at 10 µM (FGFR3 kinase): 33%
- inhibition at 10 µM (CDC2/CDK1): 26%
- inhibition at 10 µM (EGFR kinase): 4%
- inhibition at 10 µM (Src kinase): -4%
- inhibition at 10 µM (PDGFRα): 40%
- inhibition at 10 µM (PKA): 7%
- inhibition at 10 µM (TAOK2): 33%
- inhibition at 10 µM (FGFR2 kinase): -2%
